Test results published in publication PMC7404309, “Regulation of ABA-Non-Activated SNF1-Related Protein Kinase 2 Signaling Pathways by Phosphatidic Acid” (International Journal of Molecular Sciences, 2020).
Counter-ions that a name gives are not always drawn.

Key:
ABI1 = target: T1, ABI1 (Arabidopsis thaliana, UniProt P49597); experiment: ProFluor Ser/Thr PPase fluorescence assay; assay type: biochemical
T1 construct: GST fusion, E. coli Rosetta, glutathione-Sepharose
T1 sequence (P49597 1-434): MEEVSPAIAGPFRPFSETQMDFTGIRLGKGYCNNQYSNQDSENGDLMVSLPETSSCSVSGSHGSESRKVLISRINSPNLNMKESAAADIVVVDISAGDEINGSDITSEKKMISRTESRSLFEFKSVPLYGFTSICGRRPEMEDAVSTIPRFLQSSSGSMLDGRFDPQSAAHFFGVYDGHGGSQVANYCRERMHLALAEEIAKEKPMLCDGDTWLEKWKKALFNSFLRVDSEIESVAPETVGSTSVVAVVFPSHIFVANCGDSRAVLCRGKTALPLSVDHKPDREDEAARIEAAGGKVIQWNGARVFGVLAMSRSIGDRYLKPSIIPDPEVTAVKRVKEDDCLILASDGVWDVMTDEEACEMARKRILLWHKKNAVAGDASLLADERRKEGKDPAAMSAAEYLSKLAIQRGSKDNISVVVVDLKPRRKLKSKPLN

PP2CA = target: T2, PP2CA (Arabidopsis thaliana, UniProt P49598); experiment: ProFluor Ser/Thr PPase fluorescence assay; assay type: biochemical
T2 construct: GST fusion, E. coli Rosetta, glutathione-Sepharose
T2 sequence (P49598 1-399): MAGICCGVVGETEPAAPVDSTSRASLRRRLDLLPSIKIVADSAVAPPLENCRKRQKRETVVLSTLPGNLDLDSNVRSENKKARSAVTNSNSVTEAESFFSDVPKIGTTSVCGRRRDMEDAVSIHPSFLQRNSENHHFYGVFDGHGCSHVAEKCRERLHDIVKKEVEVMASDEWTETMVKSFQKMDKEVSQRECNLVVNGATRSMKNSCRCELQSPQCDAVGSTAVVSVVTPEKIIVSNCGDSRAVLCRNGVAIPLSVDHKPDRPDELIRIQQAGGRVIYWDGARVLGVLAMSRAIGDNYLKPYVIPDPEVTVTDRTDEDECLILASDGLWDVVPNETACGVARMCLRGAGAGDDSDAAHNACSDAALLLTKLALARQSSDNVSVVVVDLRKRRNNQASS

ERD10 = target: T3, ERD10 (Arabidopsis thaliana, UniProt P42759); experiment: phospholipid blot (lipid overlay); assay type: binding; conditions: TBST pH 7.5, 4 °C
T3 construct: GST fusion, E. coli Rosetta, glutathione-Sepharose
T3 sequence (P42759 1-260): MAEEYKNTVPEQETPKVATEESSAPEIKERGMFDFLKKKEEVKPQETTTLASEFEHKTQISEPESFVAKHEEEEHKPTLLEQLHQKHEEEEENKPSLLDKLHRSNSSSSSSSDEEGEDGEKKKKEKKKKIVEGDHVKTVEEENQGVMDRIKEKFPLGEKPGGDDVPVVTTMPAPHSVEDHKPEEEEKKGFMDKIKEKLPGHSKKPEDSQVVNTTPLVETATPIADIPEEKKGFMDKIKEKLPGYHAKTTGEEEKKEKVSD

CCCCCCCC/C=C\CCCCCCCC(=O)O[C@H](COC(=O)CCCCCCCCCCCCCCC)COP(=O)(O)O [PA 16:0/18:1, 1-palmitoyl-2-oleoyl-sn-glycero-3-phosphate, sodium salt]
inhibition at 50 µM (ABI1): 50 to 60%
inhibition at 50 µM (PP2CA): 50 to 60%
phospholipid blot (lipid overlay) (ERD10): the two dehydrins bound both PA and PS
